# Values of other authors in patent publication US20060034774A1, “Galactopyrannosyltriaminetetracarboxylate as ligands for bioactivated paramagnetic metal complexes” (Kaohsiung Medical University, priority 2004, published 2006).
# Like-named read-outs stand apart in the source and are kept apart here.
# Biological target: β-galactosidase (β-gal) (Escherichia coli, UniProt P00722)
# Sequence (P00722 2-1024): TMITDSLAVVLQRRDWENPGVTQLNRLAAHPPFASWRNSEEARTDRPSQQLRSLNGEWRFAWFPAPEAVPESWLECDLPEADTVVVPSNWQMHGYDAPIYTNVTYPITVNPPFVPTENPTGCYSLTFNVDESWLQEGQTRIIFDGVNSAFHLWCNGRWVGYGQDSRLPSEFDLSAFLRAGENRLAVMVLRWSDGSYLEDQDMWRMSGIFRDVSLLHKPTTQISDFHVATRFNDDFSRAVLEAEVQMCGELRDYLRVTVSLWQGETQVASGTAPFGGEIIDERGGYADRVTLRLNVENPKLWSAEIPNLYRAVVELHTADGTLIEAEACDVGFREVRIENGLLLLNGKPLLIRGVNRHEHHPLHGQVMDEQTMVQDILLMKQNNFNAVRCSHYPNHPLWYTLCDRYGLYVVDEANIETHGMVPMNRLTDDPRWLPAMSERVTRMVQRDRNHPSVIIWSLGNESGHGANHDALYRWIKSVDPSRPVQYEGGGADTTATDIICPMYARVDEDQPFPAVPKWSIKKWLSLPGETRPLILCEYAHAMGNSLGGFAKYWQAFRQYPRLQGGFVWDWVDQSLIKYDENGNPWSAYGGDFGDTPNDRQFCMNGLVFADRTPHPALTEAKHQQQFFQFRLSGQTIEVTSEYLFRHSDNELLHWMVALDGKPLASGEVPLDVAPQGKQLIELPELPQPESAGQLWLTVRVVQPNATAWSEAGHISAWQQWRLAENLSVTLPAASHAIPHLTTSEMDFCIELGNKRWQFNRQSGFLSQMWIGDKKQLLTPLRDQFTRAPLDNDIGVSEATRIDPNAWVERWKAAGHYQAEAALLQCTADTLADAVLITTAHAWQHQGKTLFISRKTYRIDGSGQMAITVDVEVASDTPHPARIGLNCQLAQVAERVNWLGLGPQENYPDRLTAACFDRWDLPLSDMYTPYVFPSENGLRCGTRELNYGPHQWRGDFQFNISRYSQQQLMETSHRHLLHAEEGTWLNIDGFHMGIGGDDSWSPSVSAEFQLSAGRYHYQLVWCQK
smiles,measurement,setting,value
"O=C(O)CN1CCN(CCO[C@@H]2O[C@H](CO)[C@H](O)[C@H](O)[C@H]2O)CCN(CC(=O)O)CCN(CC(=O)O)CC1 [Egad, 4,7,10-tri(aceticacid)-1-(2-β-galactopyranosylethoxy)-1,4,7,10-tetraagacyclo dodecane]",number of inner space water molecules,after hydrolysis by β-galactosidase (β-gal),1.2
same,number of inner space water molecules,before β-galactosidase,0.7
